Data as given in US9669034B2, “4-aryl-N-phenyl-1,3,5-triazin-2-amines containing a sulfoximine group” (BAYER INTELLECTUAL PROPERTY GMBH, priority 2011, dated 2017).
Where two headings read alike, the source gives them in different places.

Experiments:
CDK9/CycT1 = CDK9/CycT1 (Homo sapiens (Human), UniProt P50750); test: CDK9/CycT1 kinase assay (TR-FRET); format: biochemical; conditions: Method 1
How it was run: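 TR-FRET read-out of kinase inhibition, with a biotin-Ttds-tagged peptide as substrate. Enzyme: human CDK9 and CycT1, full-length with His tags, produced in insect cells and purified on Ni-NTA.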

CDK2/CycE = CDK2/CycE (Homo sapiens (Human), UniProt P24941); test: CDK2/CycE kinase assay (TR-FRET); format: biochemical; conditions: Method 2
How it was run: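 TR-FRET measurement of inhibition of phosphorylation of a biotinylated peptide substrate. Enzyme complex consisted of human CDK2 and CycE, each as a GST fusion made in Sf9 cells and purified over glutathione-Sepharose.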

[1] = tested on: HeLa human cervical tumour cells; test: Proliferation assay (crystal violet), HeLa; format: cell-based; conditions: Method 3, read-out: Inhibition of HeLa cell proliferation, IC50
How it was run: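 4-day compound exposure ([…]; DMSO 0.5%) starting 24 h post-plating. Densities: NCI-H460 and HeLa 3000, HeLa-MaTu-ADR 5000, Caco-2 1500 cells/well; 10% FCS. Glutaraldehyde fix, crystal violet stain, A595.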

[2] = tested on: HeLa-MaTu-ADR, multidrug-resistant human cervical carcinoma cells; test: Proliferation assay (crystal violet), HeLa-MaTu-ADR; format: cell-based; conditions: Method 3, read-out: Inhibition of HeLa/MaTu/ADR cell proliferation, IC50
Method: (§1) Cultivated tumour cells (NCI-H460, human non-small cell lung carcinoma cells, ATCC HTB-177; DU145, hormone-independent human prostate carcinoma cells, ATCC HTB-81; HeLa-MaTu, human cervical carcinoma cells, EPO-GmbH, Berlin; HeLa-MaTu-ADR, multidrug-resistant human cervical carcinoma cells, EPO-GmbH, Berlin; HeLa human cervical tumour cells, ATCC CCL-2; Caco-2 human colorectal carcinoma, ATCC HTB-37; B16F10 mouse melanoma cells, ATCC CRL-6475) were plated at a density of 5000 cells/well (DU145, HeLa-MaTu-ADR), 3000 cells/well (NCI-H460, HeLa-MaTu, HeLa), 1500 cells/well (Caco-2), or 1000 cells/well (B16 F10) in a 96-well multititer plate in 200 μL of their respective growth medium supplemented 10% fetal calf serum. After 24 hours, the cells of one plate (zero-point plate) were stained with crystal violet (see below), while the medium of the other plates was replaced by fresh culture medium (200 μL), to which the test substances were added in various concentrations (0 M, as well as in the range of […]; the final concentration of the solvent dimethylsulfoxide was 0.5%). The cells were incubated for 4 days in the presence of test substances. Cell proliferation was determined by staining the cells with crystal violet: the cells were fixed by adding 20 μL/measuring point of an 11% glutaric aldehyde solution for 15 minutes at room temperature. After three washing cycles of the fixed cells with water, the plates were dried at room temperature. The cells were stained by adding 100 μL/measuring point of a 0.1% crystal violet solution (pH 3.0). After three washing cycles of the stained cells with water, the plates were dried at room temperature. The dye was dissolved by adding 100 μL/measuring point of a 10% acetic acid solution. The absorbance was determined by photometry at a wavelength of 595 nm. The change of cell number, in percent, was calculated by normalization of the measured values to the absorbance values of the zero-point plate (=0%) and the absorbance of the untreated (0 M) cells (=100%). The IC50 values were determined by means of a 4 parameter fit.

[3] = tested on: NCI-H460, human non-small cell lung carcinoma cells; test: Proliferation assay (crystal violet), NCI-H460; format: cell-based; conditions: Method 3, read-out: Inhibition of NCI-H460 cell proliferation, IC50
Method: as §1

[4] = tested on: DU145, hormone-independent human prostate carcinoma cells; test: Proliferation assay (crystal violet), DU145; format: cell-based; conditions: Method 3, read-out: Inhibition of DU145 cell proliferation, IC50
Method: as §1

[5] = tested on: Caco-2 human colorectal carcinoma; test: Proliferation assay (crystal violet), Caco-2; format: cell-based; conditions: Method 3, read-out: Inhibition of Caco-2 cell proliferation, IC50
Method: as §1

[6] = tested on: B16F10 mouse melanoma cells; test: Proliferation assay (crystal violet), B16F10; format: cell-based; conditions: Method 3, read-out: Inhibition of B16F10 cell proliferation, IC50
Method: as §1

[7] = Homo sapiens, NCI-H460, NCI-H460 cells
[8] = Homo sapiens, DU-145, DU145 cells
[9] = Homo sapiens, Caco-2, Caco-2 cells
[10] = Mus musculus, B16-F10, B16F10 cells

Chain of CDK9/CycT1 (P50750 whole entry): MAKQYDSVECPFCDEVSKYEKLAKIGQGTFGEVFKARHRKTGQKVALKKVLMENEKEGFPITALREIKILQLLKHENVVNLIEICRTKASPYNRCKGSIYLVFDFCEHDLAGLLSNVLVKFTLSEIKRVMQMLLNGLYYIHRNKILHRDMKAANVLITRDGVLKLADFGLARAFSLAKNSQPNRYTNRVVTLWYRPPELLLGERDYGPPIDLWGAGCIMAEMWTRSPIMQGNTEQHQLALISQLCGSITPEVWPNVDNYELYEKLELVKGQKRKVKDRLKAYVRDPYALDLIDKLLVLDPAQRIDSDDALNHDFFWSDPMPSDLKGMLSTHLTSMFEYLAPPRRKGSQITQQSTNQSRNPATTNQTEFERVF
Chain of CDK9/CycT1 (O60563 whole entry partner): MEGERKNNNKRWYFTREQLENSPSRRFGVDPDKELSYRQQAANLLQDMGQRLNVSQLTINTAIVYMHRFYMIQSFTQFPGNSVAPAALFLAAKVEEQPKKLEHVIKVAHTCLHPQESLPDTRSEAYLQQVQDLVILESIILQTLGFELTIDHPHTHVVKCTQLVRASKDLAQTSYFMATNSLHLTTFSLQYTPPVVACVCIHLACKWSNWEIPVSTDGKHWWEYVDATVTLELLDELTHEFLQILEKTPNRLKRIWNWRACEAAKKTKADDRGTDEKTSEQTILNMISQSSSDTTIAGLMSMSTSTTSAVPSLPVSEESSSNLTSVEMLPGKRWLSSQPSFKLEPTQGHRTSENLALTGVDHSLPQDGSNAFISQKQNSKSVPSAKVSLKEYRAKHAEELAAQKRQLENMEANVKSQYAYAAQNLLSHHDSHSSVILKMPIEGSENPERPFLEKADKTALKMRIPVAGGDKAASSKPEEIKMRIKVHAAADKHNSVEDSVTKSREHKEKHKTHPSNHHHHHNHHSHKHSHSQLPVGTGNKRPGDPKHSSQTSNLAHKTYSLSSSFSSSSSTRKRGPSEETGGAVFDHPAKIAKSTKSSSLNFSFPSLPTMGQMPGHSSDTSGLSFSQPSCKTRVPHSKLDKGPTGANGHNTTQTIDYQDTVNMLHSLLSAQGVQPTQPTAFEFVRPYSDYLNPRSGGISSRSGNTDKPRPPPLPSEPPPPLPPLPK

| IC50 (CDK9/CycT1) [nM] | IC50 (CDK2/CycE) [nM] | IC50 ([1]; Homo sapiens, HeLa) [nM] | IC50 ([2]; Homo sapiens, HeLa) [nM] | IC50 [3, 7] [nM] | IC50 [4, 8] [nM] | IC50 [5, 9] [nM] | IC50 [6, 10] [nM] | IC50 [1] [nM] | IC50 [2] [nM] | IC50 ([3]; NCI-H460 cells) [nM] | IC50 ([4]; DU145 cells) [nM] | IC50 ([5]; Caco-2 cells) [nM] | IC50 ([6]; B16F10 cells) [nM] | SMILES |
| --- | --- | --- | --- | --- | --- | --- | --- | --- | --- | --- | --- | --- | --- | --- |
| 6 | 230 | 100 | 120 | 160 | 120 | 130 | 110 | – | – | – | – | – | – | COc1cc(F)ccc1-c1ncnc(Nc2cc(F)cc(CS(C)(=O)=NC#N)c2)n1 (single isomer, unassigned) [Example 71, [(3-Fluoro-5-{[4-(4-fluoro-2-methoxyphenyl)-1,3,5-triazin-2-yl]amino}benzyl)(methyl)oxido-λ^6-sulfanylidene]cyanamide] |
| 4 | 560 | 350 | 270 | 340 | 340 | 430 | 340 | – | – | – | – | – | – | CS(=N)(=O)Cc1cccc(Nc2ncnc(-c3ccc(F)cc3OCc3ccc(F)cc3)n2)c1 (single isomer, unassigned) [Example 56.a, 4-{4-Fluoro-2-[(4-fluorobenzyl)oxy]phenyl}-N-{3-[(S-methylsulfonimidoyl)methyl]phenyl}-1,3,5-triazin-2-amine] |
| 4 | 450 | – | – | – | – | – | – | 260 | 210 | 220 | 170 | 310 | 240 | CC#CCOc1cc(F)ccc1-c1ncnc(Nc2cccc(CS(C)(=N)=O)c2)n1 (single isomer, unassigned) [Example 75, 4-[2-(But-2-yn-1-yloxy)-4-fluorophenyl]-N-{3-[(S-methylsulfonimidoyl)methyl]phenyl}-1,3,5-triazin-2-amine] |
| 9 | 1900 | 590 | 1100 | 530 | 800 | 1100 | 800 | – | – | – | – | – | – | CS(=N)(=O)Cc1cccc(Nc2ncnc(-c3ccccc3OCc3ccc(F)cc3)n2)c1 (racemic) [Example 43, (rac)-4-{2-[(4-Fluorobenzyl)oxy]phenyl}-N-{3-[(S-methylsulfonimidoyl)methyl]phenyl}-1,3,5-triazin-2-amine] |
| 2 | 260 | 170 | 100 | 110 | 110 | 80 | 100 | – | – | – | – | – | – | CS(=N)(=O)Cc1cccc(Nc2ncnc(-c3ccc(F)cc3OCc3cccc(F)c3)n2)c1 (racemic) [Example 90, (rac)-4-{4-Fluoro-2-[(3-fluorobenzyl)oxy]phenyl}-N-{3-[(S-methylsulfonimidoyl)methyl]phenyl}-1,3,5-triazin-2-amine] |
| 4 | 730 | 330 | 390 | 320 | 300 | 350 | 320 | – | – | – | – | – | – | C=C(CO)COc1cc(F)ccc1-c1ncnc(Nc2cccc(CS(C)(=N)=O)c2)n1 (racemic) [Example 112, (rac)-2-({5-Fluoro-2-[4-({3-[(S-methylsulfonimidoyl)methyl]phenyl}amino)-1,3,5-triazin-2-yl]phenoxy}methyl)prop-2-en-1-ol] |
| 14 | 1500 | 410 | 3000 | 1100 | 460 | 1300 | 740 | – | – | – | – | – | – | CS(=N)(=O)Cc1cccc(Nc2ncnc(-c3ccc(F)cc3OCc3ccncc3)n2)c1 (racemic) [Example 68, (rac)-4-[4-Fluoro-2-(pyridin-4-ylmethoxy)phenyl]-N-{3-[(S-methylsulfonimidoyl)methyl]phenyl}-1,3,5-triazin-2-amine] |
| 2 | 54 | 110 | 240 | 110 | 120 | 150 | 120 | – | – | – | – | – | – | CS(=N)(=O)Cc1cccc(Nc2ncnc(-c3ccc(F)cc3OCc3cc(F)c(F)c(F)c3)n2)c1 (racemic) [Example 104, (rac)-4-{4-Fluoro-2-[(3,4,5-trifluorobenzyl)oxy]phenyl}-N-{3-[(S-methylsulfonimidoyl)methyl]phenyl}-1,3,5-triazin-2-amine] |
| 3 | 140 | 110 | 71 | 130 | 120 | 81 | 140 | – | – | – | – | – | – | COc1cc(F)ccc1-c1ncnc(Nc2cc(F)c(F)c(CS(C)(=O)=NC#N)c2)n1 (racemic) [Example 105, (rac)-[(2,3-Difluoro-5-{[4-(4-fluoro-2-methoxyphenyl)-1,3,5-triazin-2-yl]amino}benzyl)(methyl)-oxido-λ^6-sulfanylidene]cyanamide] |
| 3 | 250 | 100 | 170 | 270 | 110 | 220 | 130 | – | – | – | – | – | – | COc1cc(F)ccc1-c1ncnc(Nc2cc(C)cc(CS(C)(=O)=NC#N)c2)n1 (racemic) [Example 111, (rac)-[(3-{[4-(4-Fluoro-2-methoxyphenyl)-1,3,5-triazin-2-yl]amino}-5-methylbenzyl)(methyl)oxido-λ^6-sulfanylidene]cyanamide] |
| 13 | 630 | 330 | 400 | 410 | 280 | 420 | 320 | – | – | – | – | – | – | COc1cc(F)ccc1-c1ncnc(Nc2cccc(CS(C)(=O)=NC#N)c2)n1 (racemic) [Example 48, (rac)-[(3-{[4-(4-fluoro-2-methoxyphenyl)-1,3,5-triazin-2-yl]amino}benzyl)(methyl)oxido-λ^6-sulfanylidene]cyanamide] |
| 7 | 360 | 180 | 190 | 180 | 130 | 180 | 150 | – | – | – | – | – | – | CS(=N)(=O)Cc1cccc(Nc2ncnc(-c3ccc(F)cc3OCc3ccnc(F)c3)n2)c1 (racemic) [Example 82, (rac)-4-{4-Fluoro-2-[(2-fluoropyridin-4-yl)methoxy]phenyl}-N-{3-[(S-methylsulfonimidoyl)methyl]phenyl}-1,3,5-triazin-2-amine] |
| 11 | 1800 | 490 | 520 | 760 | 680 | 710 | 940 | – | – | – | – | – | – | COc1cc(F)ccc1-c1ncnc(Nc2cccc(CS(C)(=O)=NC(C)=O)c2)n1 (racemic) [Example 24, (rac)-N-[(3-{[4-(4-fluoro-2-methoxyphenyl)-1,3,5-triazin-2-yl]amino}benzyl)(methyl)oxido-λ^6-sulfanylidene]acetamide] |
